The target in the assay is Calcium-dependent protein kinase 1 (Plasmodium falciparum (isolate 3D7)) (UniProt P62344). Briefly: PfCDPK1 kinase inhibitors, biochemical, TCAMS library (AID 1159585).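 Note: inhibitors leave more ATP so luminescence rises with inhibition.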 As to conditions: recombinant PfCDPK1, Kinase-Glo ATP depletion luminescence.

Structures are written as SMILES.

Sequence of Calcium-dependent protein kinase 1 (Plasmodium falciparum (isolate 3D7)) (P62344 whole entry, looked up): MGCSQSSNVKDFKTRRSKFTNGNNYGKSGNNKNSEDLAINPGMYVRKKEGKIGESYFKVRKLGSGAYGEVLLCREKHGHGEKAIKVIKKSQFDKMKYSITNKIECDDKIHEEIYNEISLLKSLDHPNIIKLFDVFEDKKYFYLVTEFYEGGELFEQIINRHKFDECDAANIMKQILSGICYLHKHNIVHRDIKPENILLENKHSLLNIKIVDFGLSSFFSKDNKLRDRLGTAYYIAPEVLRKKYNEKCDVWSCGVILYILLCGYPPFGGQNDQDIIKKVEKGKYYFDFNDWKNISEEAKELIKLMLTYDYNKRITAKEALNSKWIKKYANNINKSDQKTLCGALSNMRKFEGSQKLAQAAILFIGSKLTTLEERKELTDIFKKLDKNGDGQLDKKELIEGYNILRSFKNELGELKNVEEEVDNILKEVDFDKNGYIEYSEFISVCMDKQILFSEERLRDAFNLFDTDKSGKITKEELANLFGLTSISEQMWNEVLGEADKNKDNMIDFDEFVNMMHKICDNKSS

Take `Nc1ncc(-c2cn[nH]c2)cc1-c1nc2ccc(F)cc2[nH]1`: the IC50 was 150 nM.
Consider `CC(C)(CNC(=O)C1CCN(CCOc2ccc(Cl)cc2)CC1)c1nc(-c2ccc(Cl)c(O)c2)c(-c2ccncc2)[nH]1`, for which the 50% inhibitory concentration (IC50) is 471 nM.
The same measure for `Cc1ccc(Nc2nc3cc(N(C)c4ccnc(Nc5cccc(CCS(C)(=O)=O)c5)n4)ccc3n2C)cc1`: 160 nM.
The same measure for `CC(C)(CNC(=O)[C@H]1CCCN1)c1nc(-c2ccc(Cl)c(O)c2)c(-c2ccncc2)[nH]1`: 179 nM.
The same measure for `CN1CCN(Cc2cccc(-c3ccc4c(Nc5cc(O)c(Cl)cc5F)ccnc4c3)c2)CC1`: 762 nM; for `Cc1ccc(O)cc1Nc1ccnc2cc(-c3cccc(CNCCS(C)(=O)=O)c3)ccc12`: 125 nM; for `O=C(NCCN1CCC(c2ccncc2)CC1)c1ccc(Nc2nccc(Nc3ccc(Oc4ccccc4)cc3)n2)cc1`: 135 nM.
In the case of `CS(=O)(=O)Cc1ccc(Nc2nccc(N3CCCc4cc(NC(=O)Nc5cccc(C(F)(F)F)c5)ccc43)n2)cc1`, the IC50 was 145 nM.
For the compound `Cc1cccc2[nH]c(-c3cc(-c4cn[nH]c4)cnc3N)nc12`, the IC50 is 296 nM.
With `NC(=O)c1ccccc1Nc1nc(Nc2ccn[nH]2)ncc1Cl` the figure was 186 nM.
As to `Cc1cc(Nc2ncc(Cl)c(Nc3ccccc3C(N)=O)n2)n[nH]1`, the half-inhibitory concentration (IC50) is 76 nM.
The same measure for `COc1cccc(Nc2nccc(-c3c(-c4cccc(NC(=O)c5c(F)cccc5F)c4)nn4ccccc34)n2)c1`: 87 nM; for `CN(C)CCN(C)Cc1ccc(-c2ccc3c(Nc4ccc(Oc5ccccc5)cc4)ccnc3c2)o1`: 718 nM; for `Oc1cc(Nc2ccnc3cc(I)ccc23)c(F)cc1Cl`: 282 nM.
With `N#Cc1ccc(-c2cnc3ccc(NCCc4cccnc4)nn23)cc1` the figure was 246 nM; with `COc1ccc(-c2cnc3[nH]cc(-c4ccncc4)c3c2)cc1OC`, 390 nM; with `COc1ccc(-c2cnc3ccc(N4CCCC4)nn23)cc1OC`, 310 nM.
`NCC1(c2nc(-c3ccc(Cl)c(O)c3)c(-c3ccncc3)[nH]2)CCCCC1`: the IC50 is 14 nM.
The same measure for `CS(=O)(=O)Cc1ccc(Nc2nccc(-c3c(-c4cccc(NC(=O)c5c(F)cccc5F)c4)nn4ncccc34)n2)cc1`: 11 nM; for `CCOC(=O)c1cccc(NC(=O)Nc2cccc(-c3ncc(OCCCN)c4c3nc(-c3nonc3N)n4CC)c2)c1`: 294 nM; for `CN(C)CCOc1ccc(-c2cc(-c3ccc(Cl)c(O)c3)c(-c3ccnc(N)n3)o2)cc1`: 168 nM.
With `O=C(NCCN1CCC(c2ccncc2)CC1)c1cccc(Nc2nccc(Nc3ccc(Oc4ccccc4)cc3)n2)c1` the figure was 220 nM; with `NC(=O)c1ccccc1Nc1nc(Nc2cccc(N3CCN(CCO)CC3)c2)ncc1Cl`, 58 nM.
In the case of `CS(=O)(=O)Nc1cccc(-c2cnc3[nH]cc(-c4cccc(CN)c4)c3c2)c1`, the half-maximal inhibitory concentration (IC50) was 387 nM.
As to `CN1CCN(CCCNCc2ccc(Nc3nccc(Nc4ccc(Oc5ccccc5)cc4)n3)cc2)CC1`, the IC50 is 139 nM.
Take `O=C(NCCCN1CCCCC1)c1ccc(Nc2nccc(Nc3ccc(Oc4ccccc4)cc3)n2)cc1`: the IC50 is 94 nM.
On to `CN(C)CCNCc1nc(-c2ccc3c(Nc4ccc(Oc5ccccc5)cc4)ccnc3c2)cs1`, for which the IC50 is 887 nM.
The same measure for `CC(C)(CN)c1nc(-c2ccc(Cl)c(O)c2)c(-c2ccncc2)[nH]1`: 10 nM; for `CN(C(=O)c1cc2c(-c3cncnc3)cccc2[nH]1)c1ccccc1`: 271 nM.
With `CC(C)(CNCc1ccc(F)c(F)c1)c1nc(-c2ccc(Cl)c(O)c2)c(-c2ccnc(N)n2)[nH]1` the figure was 469 nM; with `CN1CCC=C(C(=O)NCC(C)(C)c2nc(-c3ccc(Cl)c(O)c3)c(-c3ccncc3)[nH]2)C1`, 213 nM.
For `CCn1c(-c2nonc2N)nc2c(-c3cccc(NC(=O)Nc4cccc(C(F)(F)F)c4)c3)ncc(OCCCN)c21`, the IC50 is 15 nM.
The same measure for `O=C(Nc1cccc(-c2nn3ccccc3c2-c2ccnc(Nc3ccc(NCCCN4CCOCC4)c(F)c3)n2)c1)c1c(F)cccc1F`: 38 nM; for `COCCNCc1cccc(-c2ccc3c(Nc4cc(O)c(Cl)cc4F)ccnc3c2)c1`: 436 nM; for `CCn1c(-c2nonc2N)nc2c(-c3cccc(NC(=O)Nc4ccccc4Cl)c3)ncc(OCCCN)c21`: 72 nM.
With `COCCOc1ccc(Nc2nccc(-c3c(-c4cccc(NC(=O)c5c(F)cccc5F)c4)nn4ccccc34)n2)cc1Cl`, the concentration for half-maximal inhibition (IC50) is 152 nM.
As for `Cc1ccc(Nc2nccc(Nc3ccc4c(c3)nc(Nc3cc(C(C)(C)C)on3)n4C)n2)cc1S(C)(=O)=O`, the IC50 is 242 nM.
Turning to `CS(=O)(=O)Cc1ccc(Nc2nccc(-c3c(-c4cccc(C(=O)Nc5c(F)cccc5F)c4)nn4ccccc34)n2)cc1`, the IC50 is 50 nM.
With `CC(C)(CNCc1ccc(C(F)(F)F)cc1)c1nc(-c2ccc(Cl)c(O)c2)c(-c2ccnc(N)n2)[nH]1` the figure was 353 nM.
On to `CN1CCN(c2ccc(Nc3nccc(-c4c(-c5cccc(NC(=O)c6c(F)cccc6F)c5)nn5ccccc45)n3)cc2)CC1`, for which the concentration for half-maximal inhibition (IC50) was 35 nM.
Regarding `CC(C)(CNC(=O)C1CCN(Cc2ccc(Cl)cc2)CC1)c1nc(-c2ccc(Cl)c(O)c2)c(-c2ccncc2)[nH]1`, the IC50 is 347 nM.
The same measure for `CCCN1CCN(CCNC(=O)c2cccc(Nc3nccc(Nc4ccc(Oc5ccccc5)cc4)n3)c2)CC1`: 336 nM; for `NCCNS(=O)(=O)c1ccc(-c2ccnc3[nH]c(-c4ccncc4)cc23)cc1`: 422 nM; for `COc1ccc2nc(-c3cc(-c4ccc(NC(C)=O)cc4)cnc3N)[nH]c2c1`: 501 nM.
With `O=C(NCCN1CCCCC1)c1ccc(Nc2nccc(Nc3ccc(Oc4ccccc4)cc3)n2)cc1` the figure was 103 nM.
On to `CN1CCN(c2ccc(Nc3nccc(-c4cnn5ncccc45)n3)cc2Cl)CC1`, for which the IC50 is 232 nM.
`CC(C)(CN)c1cc(-c2ccc(Cl)c(O)c2)c(-c2ccncc2)o1`: the concentration for half-maximal inhibition (IC50) was 13 nM.
The same measure for `O=C(Nc1cccc(-c2nn3ncccc3c2-c2ccnc(Nc3cccc(-c4cnco4)c3)n2)c1)c1c(F)cccc1F`: 23 nM.
The same measure for `Cc1cccc(Nc2nc(N[C@@H]3CCCNC3)nc3cc[nH]c(=O)c23)c1`: 23 nM; for `CN1CCN(c2ccc(Nc3ncc(Cl)c(Nc4cccnc4C(N)=O)n3)cc2)CC1`: 12 nM.
The same measure for `COc1ccc(Nc2ncc3c(-c4cccc(NC(=O)Cc5cccc(O)c5)c4)c[nH]c3n2)cc1OC`: 312 nM.
For `COc1ccc(Nc2ncc(OC)c(Nc3ccccc3C(N)=O)n2)cc1N1CCN(C)CC1`, the IC50 is 967 nM.
With `CC(c1cccc(Nc2nccc(-c3c(-c4cccc(NC(=O)c5c(F)cccc5F)c4)nn4ccccc34)n2)c1)S(C)(=O)=O` (configuration not stated) the figure was 21 nM; with `c1ccc(Oc2ccc(Nc3ccnc4cc(-c5ccc(CNCCN6CCOCC6)o5)ccc34)cc2)cc1`, 435 nM; with `CC(C)(CNC(=O)[C@@H]1CCCCN1)c1nc(-c2ccc(Cl)c(O)c2)c(-c2ccncc2)[nH]1`, 192 nM.
With `CCn1c(-c2nonc2N)nc2c(-c3cccc(NC(=O)Nc4ccc(Cl)cc4)c3)ncc(OCCCN)c21` the figure was 44 nM.
`Cc1nnc(-c2cccc(Nc3ccnc4cc(-c5nccs5)ccc34)c2)o1`: the IC50 is 186 nM.
For `CCn1c(-c2nc(-c3ccnc(N4CCN(C)CC4)c3)cnc2N)nc2cc(S(C)(=O)=O)ccc21`, the half-inhibitory concentration (IC50) was 654 nM.
As to `COCCNCc1ncsc1-c1ccc2c(Nc3cc(O)c(Cl)cc3F)ccnc2c1`, the IC50 is 150 nM.
As for `CCN(CC)CCOc1ccc(Nc2ncc3cc(-c4c(Cl)cccc4Cl)c(=O)n(C)c3n2)cc1`, the IC50 was 780 nM.
Take `COCCNCc1cccc(-c2ccc3c(Nc4ccc(Oc5ccccc5)cc4)ccnc3c2)c1`: the 50% inhibitory concentration (IC50) is 979 nM.
Take `CC(C)(CNCc1ccc(OC(F)(F)F)cc1)c1nc(-c2ccc(Cl)c(O)c2)c(-c2ccncc2)[nH]1`: the IC50 is 438 nM.
With `Cc1csc(-c2ncc(OC[C@@H](N)Cc3ccccc3)cc2-c2ccc3n[nH]c(C)c3c2)c1` the figure was 44 nM; with `CCn1c(-c2nonc2N)nc2c(-c3cccc(NC(=O)Nc4ccc(C#N)cc4)c3)ncc(OCCCN)c21`, 235 nM.
As for `O=c1[nH]ccc2nc(N[C@@H]3CCNC3)nc(Nc3cc(Cl)cc(Cl)c3)c12`, the half-inhibitory concentration (IC50) is 33 nM.
With `CNC(=O)c1ccccc1Nc1nc(Nc2cccc(CS(C)(=O)=O)c2)ncc1C` the figure was 145 nM.
The same measure for `CNC(=O)c1ccccc1Nc1nc(Nc2ccc(CCN3CCN(C)CC3)cc2)ncc1Cl`: 47 nM; for `Cc1cc(Nc2ncc(C#N)c(Nc3ccccc3C(N)=O)n2)ccc1N1CCN(C)CC1`: 10 nM.
With `Cc1cccc(Nc2nc(NCCCCN)nc3cc[nH]c(=O)c23)c1` the figure was 566 nM.
For `COc1cccc(CNCC(C)(C)c2nc(-c3ccc(Cl)c(O)c3)c(-c3ccncc3)[nH]2)c1`, the IC50 was 275 nM.
For the compound `Oc1cc(-c2nc(C3(CNCc4ccc(Cl)cc4)CCCCC3)[nH]c2-c2ccncc2)ccc1Cl`, the half-inhibitory concentration (IC50) was 846 nM.
With `NCC(NC(=O)c1ccc(-c2c[nH]c3ncccc23)s1)c1ccccc1` (configuration not stated) the figure was 29 nM.
With `COc1ccc(CNCC(C)(C)c2nc(-c3ccc(Cl)c(O)c3)c(-c3ccncc3)[nH]2)cc1` the figure was 186 nM; with `CN(C)CCNCc1ccc(-c2ccc3c(Nc4ccc(Oc5ccccc5)cc4)ccnc3c2)o1`, 681 nM.
With `COc1cc2nccc(Nc3ccc(Oc4ccccc4)cc3)c2cc1OC` the figure was 145 nM; with `CC(=O)Nc1cccc(Nc2nccc(Nc3ccc(Oc4ccccc4)cc3)n2)c1`, 425 nM.
In the case of `COc1ccc(Nc2ncc(C#N)c(Nc3ccccc3C(N)=O)n2)cc1N1CCN(C)CC1`, the 50% inhibitory concentration (IC50) was 89 nM.
Turning to `CN1CCN(Cc2ccc(-c3ccc4c(Nc5ccc(Cl)cc5F)ccnc4c3)o2)CC1`, the IC50 is 406 nM.
For the compound `O=C(NC1CC1)c1ccc(Nc2nccc(-c3c(-c4cccc(NC(=O)c5c(F)cccc5F)c4)nn4ccccc34)n2)cc1`, the concentration for half-maximal inhibition (IC50) is 26 nM.
`CN1CCN(Cc2ccc(-c3ccc4c(Nc5cc(O)c(Cl)cc5F)ccnc4c3)o2)CC1`: the 50% inhibitory concentration (IC50) was 131 nM.
The same measure for `CS(=O)(=O)CCNCc1cccc(-c2ccc3c(Nc4cc(O)c(Cl)cc4F)ccnc3c2)c1`: 71 nM; for `O=C(Nc1cccc(-c2nn3ccccc3c2-c2ccnc(Nc3cccc(-c4cnco4)c3)n2)c1)C1CCCCC1`: 164 nM.
